Consider 23 compounds from patent publication US8853196B2, “Aminochromane, aminothiochromane and amino-1,2,3,4-tetrahydroquinoline derivatives, pharmaceutical compositions containing them, and their use in therapy” (AbbVie Deutschland GmbH & Co. KG, priority 2011, dated 2014).

Counter-ions that a name gives are not always drawn. Where only a bound is given, the exact number is not on record here.

The target of this experiment is T1, human GlyT1c transporter (Homo sapiens, UniProt P48067).
T1 construct: expressed in transfected cells; host or cells: CHO cells (recombinant; membranes)
T1 sequence (P48067 1-706): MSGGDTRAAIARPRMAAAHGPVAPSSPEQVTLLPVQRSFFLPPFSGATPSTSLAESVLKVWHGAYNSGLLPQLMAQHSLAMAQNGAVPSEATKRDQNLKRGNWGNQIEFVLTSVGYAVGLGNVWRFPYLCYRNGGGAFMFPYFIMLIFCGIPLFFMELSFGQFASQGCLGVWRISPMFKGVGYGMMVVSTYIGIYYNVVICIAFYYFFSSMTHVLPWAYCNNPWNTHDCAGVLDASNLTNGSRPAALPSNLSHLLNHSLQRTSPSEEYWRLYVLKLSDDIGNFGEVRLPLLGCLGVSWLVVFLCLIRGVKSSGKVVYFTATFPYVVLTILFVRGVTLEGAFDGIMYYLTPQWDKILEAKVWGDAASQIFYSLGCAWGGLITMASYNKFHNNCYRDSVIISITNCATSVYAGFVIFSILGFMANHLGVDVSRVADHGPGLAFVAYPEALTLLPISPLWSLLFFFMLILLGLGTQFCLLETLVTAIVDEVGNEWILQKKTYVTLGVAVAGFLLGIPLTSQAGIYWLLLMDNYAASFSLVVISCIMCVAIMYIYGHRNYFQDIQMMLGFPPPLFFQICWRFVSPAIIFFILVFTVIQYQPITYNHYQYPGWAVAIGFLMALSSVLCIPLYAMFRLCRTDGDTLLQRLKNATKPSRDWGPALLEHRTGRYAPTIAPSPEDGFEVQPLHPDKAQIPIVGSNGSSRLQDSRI
Nature of the experiment: Radioligand binding assay using recombinant CHO cell membranes expressing human GlyT1. Conditions: values given as upper bounds, read-out: radioligand binding Kiapp. As to the method: 2. Radioligand Binding Assays Using Recombinant CHO Cell Membranes Expressing Human GlyT1:
Radioligand binding to human GlyT1c transporter-expressing membranes was determined as described in Mezler et al., Molecular Pharmacology 74:1705-1715, 2008.
For the compound `Cn1cc(S(=O)(=O)NCCOc2ccc3c(c2)[C@H](Cc2ccccc2)[C@H](N2CCC2)CO3)cn1` (relative stereo) [Example 16, cis-1-Methyl-1H-pyrazole-4-sulfonic acid [2-(3-azetidin-1-yl-4-benzyl-chroman-6-yloxy)-ethyl]-amide], the Ki is at most 10 nM.
As for `CCS(=O)(=O)NCCOc1ccc2c(c1)[C@H](Cc1ccccc1)[C@H](N1CCC1)CO2` (relative stereo) [Example 18, cis-Ethanesulfonic acid [2-(3-azetidin-1-yl-4-benzyl-chroman-6-yloxy)-ethyl]-amide], the figure is at most 100 nM; as for `CN[C@@H]1COc2ccc(CNS(=O)(=O)CC3CC3)cc2[C@@H]1Cc1ccccc1` (relative stereo) [Example 8a, cis-N-{[4-Benzyl-3-(methylamino)-3,4-dihydro-2H-chromen-6-yl]methyl}-1-cyclopropylmethanesulfonamide], at most 10 nM.
Consider `CCS(=O)(=O)NCc1ccc2c(c1)[C@H](Cc1ccccc1)[C@H](NC)CO2` (relative stereo) [Example 9a, cis-N-{[4-Benzyl-3-(methylamino)-3,4-dihydro-2H-chromen-6-yl]methyl}ethanesulfonamide], for which the Ki was at most 100 nM.
As for `CCCS(=O)(=O)NCCOc1ccc2c(c1)[C@H](Cc1ccccc1)[C@H](NC)C(C)(C)O2` (relative stereo) [Example 74, cis-Propane-1-sulfonic acid [2-(-4-benzyl-2,2-dimethyl-3-methylamino-chroman-6-yloxy)-ethyl]-amide], the figure is at most 1000 nM.
As for `Cn1cc(S(=O)(=O)NCc2ccc3c(c2)[C@H](Cc2ccccc2)[C@H](N2CCC2)CO3)cn1` (relative stereo) [Example 15, cis-1-Methyl-1H-pyrazole-4-sulfonic acid (3-azetidin-1-yl-4-benzyl-chroman-6-ylmethyl)-amide], the figure is at most 10 nM; as for `Cc1nn(C)cc1S(=O)(=O)NCc1ccc2c(c1)C(Cc1ccccc1)C(N)CO2` (centres unmarked) [Example 45, 1,3-Dimethyl-1H-pyrazole-4-sulfonic acid (3-amino-4-benzyl-chroman-6-ylmethyl)-amide 2,2,2-trifluoroacetate], at most 10000 nM.
The value for `CN[C@@H]1COc2ccc(CNS(C)(=O)=O)cc2[C@H]1Cc1ccccc1` (relative stereo) [Example 61, trans-N-(-4-Benzyl-3-methylamino-chroman-6-ylmethyl)-methanesulfonamide] was at most 1000 nM.
On to `CN[C@@H]1COc2ccc(CNS(=O)(=O)c3cnn(C)c3)cc2[C@@H]1Cc1ccccc1` (relative stereo) [Example 6a, cis-N-{[4-benzyl-3-(methylamino)-3,4-dihydro-2H-chromen-6-yl]methyl}-1-methyl-1H-pyrazole-4-sulfonamide], for which the Ki is at most 10 nM.
As for `Cc1cc(S(=O)(=O)NCc2ccc3c(c2)C(Cc2ccccc2)C(N)CO3)n(C)n1` (centres unmarked) [Example 55, 2,5-Dimethyl-2H-pyrazole-3-sulfonic acid (3-amino-4-benzyl-chroman-6-ylmethyl)-amide 2,2,2-trifluoroacetate], the figure is at most 10000 nM; as for `N[C@@H]1COc2ccc(CNS(=O)(=O)CC3CC3)cc2[C@@H]1Cc1ccccc1` (relative stereo) [Example 67, cis-N-(-3-Amino-4-benzyl-chroman-6-ylmethyl)-C-cyclopropyl-methanesulfonamide], at most 10 nM; as for `CCS(=O)(=O)NCc1ccc2c(c1)[C@@H](Cc1ccccc1)[C@H](NC)CO2` (relative stereo) [Example 9b, trans-N-{[4-benzyl-3-(methylamino)-3,4-dihydro-2H-chromen-6-yl]methyl}ethanesulfonamide], at most 1000 nM.
The value for `Cn1cnc(S(=O)(=O)NCCOc2ccc3c(c2)C(Cc2ccccc2)C(N2CCC2)CO3)c1` (single isomer, unassigned; isomer 2) [Example 80, cis-1-Methyl-1H-imidazole-4-sulfonic acid [2-(3-azetidin-1-yl-4-benzyl-chroman-6-yloxy)-ethyl]-amide. (Isomer 2)] was at most 10 nM; that for `N[C@@H]1COc2ccc(CNS(=O)(=O)C3CCC3)cc2[C@@H]1Cc1ccccc1` (relative stereo) [Example 69, cis-Cyclobutanesulfonic acid (-3-amino-4-benzyl-chroman-6-ylmethyl)-amide] was at most 100 nM.
On to `CCCS(=O)(=O)NCc1ccc2c(c1)[C@@H](Cc1ccccc1)[C@H](NC)CO2` (relative stereo) [Example 7b, trans-N-{[4-benzyl-3-(methylamino)-3,4-dihydro-2H-chromen-6-yl]methyl}propane-1-sulfonamide], for which the Ki was at most 100 nM.
Consider `N[C@@H]1COc2ccc(CNS(=O)(=O)CC3CC3)cc2[C@H]1Cc1ccccc1` (relative stereo) [Example 68, trans-N-(-3-Amino-4-benzyl-chroman-6-ylmethyl)-C-cyclopropyl-methanesulfonamide], for which the Ki is at most 100 nM.
The value for `CCCS(=O)(=O)NCCOc1ccc2c(c1)[C@H](Cc1ccccc1)[C@H](N1CCC1)CO2` (relative stereo) [Example 14, cis-Propane-1-sulfonic acid [2-(3-azetidin-1-yl-4-benzyl-chroman-6-yloxy)-ethyl]-amide; trifluoro-acetic acid salt] was at most 100 nM; that for `CN[C@@H]1COc2ccc(OCCNS(=O)(=O)c3cnn(C)c3)cc2[C@H]1Cc1ccccc1` (relative stereo) [Example 1b, trans-N-(2-{[-4-benzyl-3-(methylamino)-3,4-dihydro-2H-chromen-6-yl]oxy}ethyl)-1-methyl-1H-pyrazole-4-sulfonamide hydrochloride] was at most 10 nM.
On to `CN[C@@H]1COc2ccc(CNS(=O)(=O)c3cn(C)cn3)cc2[C@@H]1Cc1ccccc1` (relative stereo) [Example 5a, cis-1-Methyl-1H-imidazole-4-sulfonic acid (4-benzyl-3-methylamino-chroman-6-ylmethyl)-amide], for which the Ki is at most 10 nM.
As for `CC1CCCN(S(=O)(=O)NCc2ccc3c(c2)C(Cc2ccccc2)C(N)CO3)C1` (centres unmarked) [Example 43, 3-Methyl-piperidine-1-sulfonic acid (3-amino-4-benzyl-chroman-6-ylmethyl)-amide 2,2,2-trifluoroacetate], the figure is at most 1000 nM; as for `CN[C@@H]1COc2ccc(OCCNS(=O)(=O)CC3CC3)cc2[C@H]1Cc1ccccc1` (relative stereo) [Example 4b, trans-N-(2-{[-4-benzyl-3-(methylamino)-3,4-dihydro-2H-chromen-6-yl]oxy}ethyl)-1-cyclopropylmethanesulfonamide], at most 100 nM; as for `Cn1cnc(S(=O)(=O)NCc2ccc3c(c2)[C@H](Cc2ccccc2)[C@H](N2CCCC2)CO3)c1` (relative stereo) [Example 62, cis-1-Methyl-1H-imidazole-4-sulfonic acid (-4-benzyl-3-pyrrolidin-1-yl-chroman-6-ylmethyl)-amide], at most 10 nM.
The value for `Cc1csc(S(=O)(=O)NCc2ccc3c(c2)C(Cc2ccccc2)C(N)CO3)c1` (centres unmarked) [Example 56, 4-Methyl-thiophene-2-sulfonic acid (3-amino-4-benzyl-chroman-6-ylmethyl)-amide 2,2,2-trifluoroacetate] was at most 100 nM.
